Patent publication US20240287123A1 (Victoria Link Limited, priority 2021, published 2024)
Entries after “also recorded” stand apart in the source; their conditions may differ. Read-outs that look alike come from different tables or passages of the source.

Columns and labels:
[1] = tested on: HCMV (AD169 strain in HFF cells); assay: CPE (cytopathic effect) assay for HCMV; format: cell-based, Human Cytomegalovirus
Experimental: (§1) Human foreskin fibroblast (HFF) cells prepared from human foreskin tissue were obtained from the University of Alabama at Birmingham tissue procurement facility with approval from its IRB. The tissue was incubated at 4° C. for 4 h in Clinical Medium consisting of minimum essential media (MEM) with Earl's salts supplemented with 10% fetal bovine serum (FBS) (Hyclone, Inc. Logan UT), L-glutamine, fungizone, and vancomycin. Tissue was then placed in phosphate buffered saline (PBS), minced, rinsed to remove the red blood cells, and resuspended in trypsin/EDTA solution. The tissue suspension was incubated at 37° C. and gently agitated to disperse the cells, which were collected by centrifugation. Cells were resuspended in 4 ml Clinical Medium and placed in a 25 cm^2 flask and incubated at 37° C. in a humidified CO2 incubator for 24 h. The media was then replaced with fresh Clinical Medium and the cell growth was monitored daily until a confluent monolayer had formed. The HFF cells were then expanded through serial passages in standard growth medium of MEM with Earl's salts supplemented with 10% FBS, L-glutamine, penicillin, and gentamycin.
(§2) Akata cells were obtained from Louisiana State University, Baton Rouge, LA. The HCMV strain AD169 was obtained from the American Type Culture Collection (ATCC, Manassas, VA). Akata cells latently infected with EBV were obtained from Louisiana State University, Baton Rouge, LA.
(§3) Each experiment that evaluates the antiviral activity of compounds includes both positive and negative control compounds to ensure the performance of each assay. Concurrent assessment of cytotoxicity was also performed for each study in the same cell line and with the same compound exposure.
Assays were performed in monolayers as described.37 Cells were seeded in 384 well plates and incubated for 24 h to allow the formation of confluent monolayers. Dilutions of test drug were prepared directly in the plates and the monolayers infected at a predetermined MOI based on virus used. After incubation, cytopathology was determined by the addition of CellTiter-Glo (CTG) reagent. […] Toxicity was measured using CTG as above.

EBV (Akata/Akata) = assay: EBV assay: viral DNA quantification in induced Akata cells; format: cell-based, Epstein-Barr virus; conditions: for activity against EBV: cell-based assay, highest concentration tested in primary assays 50 μM; for EC50: human gammaherpesvirus 4, Akata
Experimental: as §2, §3
Assays for EBV were performed by reported methods.^37 Akata cells were induced to undergo a lytic infection with 50 μg/ml of a goat anti-human IgG antibody. Experimental compounds were diluted within plates. The cells were added and incubated for 72 h. Similar plates were initiated without virus induction/addition and used for measuring cytotoxicity by the addition of CTG. For all assays, the replication of the virus was assessed by the quantification of viral DNA. For EBV, primers 5′-[…]-3′ and 5′-CAG TTC CTC GCCTTAGGTTG-3 amplified a fragment corresponding to coordinates 96802-97234 in EBV genome (AJ507799). Compound concentrations sufficient to reduce genome copy number by 50% were calculated from experimental data as well as compound cytotoxicity.

[2] = Cytotoxicity in HFF cells (CellTiter-Glo), concurrent with HCMV assay; format: cell-based; conditions: human
Experimental: as §1, with “gentamycin. The cells were passaged routinely and used for assays at or below passage ^10.37,38” for “gentamycin.”
as §3
Assays were performed in monolayers as described.37 Cells were seeded in 384 well plates and incubated for 24 h to allow the formation of confluent monolayers. Dilutions of test drug were prepared directly in the plates and the monolayers infected at a predetermined MOI based on virus used. After incubation, cytopathology was determined by the addition of CellTiter-Glo (CTG) reagent. Concentrations of test compound sufficient to reduce CPE by 50% (EC50) or decrease cell viability by 50% (CC50) were interpolated using standard methods in Microsoft Excel. Toxicity was measured using CTG as above.

[3] = Cytotoxicity in Akata cells (CTG), concurrent with EBV assay; format: cell-based; conditions: human, Akata cells (without virus induction), Table 1
Experimental: as §3
Assays for EBV were performed by reported methods.^37 Akata cells were induced to undergo a lytic infection with 50 μg/ml of a goat anti-human IgG antibody. Experimental compounds were diluted within plates. The cells were added and incubated for 72 h. Similar plates were initiated without virus induction/addition and used for measuring cytotoxicity by the addition of CTG. For all assays, the replication of the virus was assessed by the quantification of viral DNA. […] Compound concentrations sufficient to reduce genome copy number by 50% were calculated from experimental data as well as compound cytotoxicity.

HIVADA = assay: HIV p24 alphaLISA in infected monocyte derived macrophages; format: cell-based, Human Immunodeficiency Virus; conditions: 100 μM, infected MDM, days 2-7, compared with DMSO control
Experimental: Primary human MDMs were cultured from peripheral blood mononuclear cells and pre-treated for 24 h with ddhC (100 μM), compound 8 (100 μM), compound 21 (100 μM), emtricitabine control (15 μM, 10 μM, 1 μM, 0.1 μM), or the drug vehicle, DMSO. MDM were then infected with HIVADA in the presence of these compounds and treated daily (with compound), while culture supernatants were collected to quantify levels of HIV p24, a viral capsid protein, on days 2-7 of infection.
Leukopaks from healthy donors were obtained from the New York Blood Center and processed by Ficoll gradient centrifugation to isolate peripheral blood mononuclear cells (PBMC). These PBMC were cultured adherently into monocyte derived macrophages (MDM), according to published protocols, on 60 mm dishes for 6 days with 10-20 ng/ml macrophage colony stimulating factor (M-CSF). MDM were pre-treated with ddhC, compound 8, compound 21, emtricitabine (Cat. No .: 10071), or DMSO vehicle at indicated concentrations for 24 hours (NIH AIDS Reagent Program, Bethesda, MD). Cells were left uninfected or infected for 24 h in the presence of one of the compounds listed above with 20 ng/mL HIVADA, a macrophage-tropic HIV strain originally derived from a person with HIV (NIH). Media was changed daily with the mentioned compounds added each time, and supernatants were collected on days 2, 3, 4, 5, 6, and 7 of infection. Each treatment condition was analyzed in duplicate plates per experiment.
Supernatant samples were analyzed for the viral capsid protein, HIV p24, by a sensitive p24 alphaLISA according to the manufacturer's protocol (Perkin-Elmer, Waltham, MA). Treatment conditions were analyzed in duplicate plates, and each supernatant was analyzed in duplicate on a 96-well alphaLISA plate. These were then fit to a sigmoid standard curve to extrapolate HIV p24 levels in pg/mL within the assay limits of detection.

Zika virus = conditions: Vero cells, 1 mM; cited from earlier work
[4] = Human betaherpesvirus 5, AD169 strain in HFF cells, Table 1, read-out: HCMV EC50
[5] = Akata/Akata, Table 1, read-out: EBV EC50
[6] = read-out: Result for compound (EC50/UM), EBV Akata/Akata, assay order Primary

Compound	EC50 ([1]; Human betaherpesvirus 5, AD169, HFF, approximate, read-out: EC50 against HCMV)	EC50 [1, 4]	activity against EBV (EBV (Akata/Akata))	EC50 (EBV (Akata/Akata); [5])	EC50 (EBV (Akata/Akata); [6])	EC50 (EBV (Akata/Akata); read-out: EC50 against EBV)	CC50 [2]	CC50 at 72 h [3]	levels of HIV p24 viral capsid protein (HIVADA)	antiviral activity against HCMV [1]	Zika virus proliferation (Zika virus)	EC50 ([1]; Human betaherpesvirus 5, AD169, HFF, read-out: HCMV EC50)	CC50 ([2]; HFF cells, Table 1, read-out: HCMV CC50)
CC(C)C(=O)OCC1=C[C@@H](O)[C@H](n2ccc(NO)nc2=O)O1 [Compound 10, 3′-Deoxy-3′,4′-didehydro-4-N-hydroxy-5′-O-isobutyroyl-cytidine]	~0.03 µM	0.03 µM	slightly diminishes the activity	29.9 µM	29.9 µM	7.6 to 38.7 µM	> 50 µM	> 50 µM					
Nc1ccn([C@@H]2OC(CO)=C[C@H]2O)c(=O)n1 [ddhC, 3′-Deoxy-3′,4′-didehydro-cytidine, reference compound]		> 50 µM	five-fold less active than compound 8; also recorded: only weakly inhibited	38.7 µM	38.7 µM	7.6 to 38.7 µM	> 50 µM	> 50 µM	no reduction	does not display antiviral activity	reduce Zika virus proliferation		
Nc1nc(O)c2ncn(COC(CO)CO)c2n1 [Ganciclovir, ganciclovir, reference compound]												0.55 µM	> 150 µM
